Source: patent US8765805B2, “Ligand activators of the RAR receptors and pharmaceutical/cosmetic applications thereof” (Galderma Research & Development, priority 2003, dated 2014)
pKd: −log10 of the molar value.

How the values were obtained:
Type in all cases: cell-based
Settings in all cases: HeLa stable transfectants; for pKd: Schild regression vs reference antagonist, read-out: Kdapp; for AC50: concentration that gives 50% of the activity
[1] = target: T1, RAR alpha (Homo sapiens, UniProt P10276); assay: Transactivation test, HeLa reporter cells (luciferase), RAR alpha
T1 sequence (P10276 183-417 limits assumed): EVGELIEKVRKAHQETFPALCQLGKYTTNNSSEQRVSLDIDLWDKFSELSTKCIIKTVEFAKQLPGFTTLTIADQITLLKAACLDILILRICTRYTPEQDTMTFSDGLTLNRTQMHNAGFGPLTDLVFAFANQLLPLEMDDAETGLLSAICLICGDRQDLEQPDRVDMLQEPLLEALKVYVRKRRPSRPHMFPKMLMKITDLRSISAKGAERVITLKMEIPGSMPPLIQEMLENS
Method: (§1) The activation of receptors with an agonist (activator) in HeLa cells leads to the expression of a reporter gene, luciferase, which, in the presence of a substrate, generates light. The activation of the receptors may thus be measured by quantifying the luminescence produced after incubating the cells in the presence of a reference antagonist. The activating products displace the antagonist from its site, thus allowing activation of the receptor. The activity is measured by quantifying the increase in light produced. This measurement makes it possible to determine the activating activity of the compounds according to the invention.
(§2) Determination of the Kdapp:
(§3) In this study, a constant is determined which is the affinity of the molecule for the receptor. Since this value can fluctuate depending on the basal activity and the expression of the receptor, it is referred to as the Kdapparent (KdApp).
(§4) To determine this constant, the cells are brought into contact with a concentration of the test product and a concentration of the reference antagonist, 4-(5,5-dimethyl-8-p-tolyl-5,6-dihydronaphth-2-ylethynyl)benzoic acid. Measurements are also taken for the total agonist (4-[2-(5,5,8,8-tetramethyl-5,6,7,8-tetrahydronaphth-2-yl)propenyl]benzoic acid) and inverse agonist, 4-{(E)-3-[4-(4-tert-butylphenyl)-5,5,8,8-tetramethyl-5,6,7,8-tetrahydro-2-naphthyl]-3-oxopropenyl}benzoic acid, controls.
(§5) These crossed curves make it possible to determine the AC50 values (concentration at which 50% activation is observed) for the reference ligand at various concentrations of test product. These AC50 values are used to calculate the Schild regression by plotting a straight line corresponding to the Schild equation (“quantitation in receptor pharmacology” Terry P. Kenakin, Receptors and Channels, 2001, 7, 371-385).
(§6) In the case of an agonist, an AC50 value (concentration that gives 50% of the activity) is calculated by plotting the curve of the product at the concentration of the reference ligand that gives 80% activation.
(§7) The HeLa cell lines used are stable transfectants containing the plasmids ERE-βGlob-Luc-SV-Neo (reporter gene) and RAR (α, β, γ) ER-DBD-puro. These cells are inoculated into 96-well plates at a rate of 10,000 cells per well in 100 μl of DMEM medium without phenol red, and supplemented with 10% defatted calf serum. The plates are then incubated at 37° C. and 7% CO2 for 4 hours.
(§8) The various dilutions of the test products, of the reference ligand (4-(5,5-dimethyl-8-p-tolyl-5,6-dihydronaphth-2-yl)ethynyl)benzoic acid, of the 100% control (100 nM 4-[2-(5,5,8,8-tetramethyl-5,6,7,8-tetrahydro-2-naphthyl)propenyl]benzoic acid) and of the 0% control (500 nM 4-{(E)-3-[4-(4-tert-butylphenyl)-5,5,8,8-tetramethyl-5,6,7,8-tetrahydro-2-naphthyl]-3-oxopropenyl}benzoic acid) are added at a rate of 5 μl per well. The plates are then incubated for 18 hours at 37° C. and 7% CO2.
(§9) The culture medium is removed by turning over and 100 μl of a 1:1 PBS/luciferine mixture is added to each well. After 5 minutes, the plates are read using the luminescence detector.

[2] = target: T2, RAR beta (Homo sapiens, UniProt P10826); assay: Transactivation test, HeLa reporter cells (luciferase), RAR beta
T2 sequence (P10826 183-417 limits assumed): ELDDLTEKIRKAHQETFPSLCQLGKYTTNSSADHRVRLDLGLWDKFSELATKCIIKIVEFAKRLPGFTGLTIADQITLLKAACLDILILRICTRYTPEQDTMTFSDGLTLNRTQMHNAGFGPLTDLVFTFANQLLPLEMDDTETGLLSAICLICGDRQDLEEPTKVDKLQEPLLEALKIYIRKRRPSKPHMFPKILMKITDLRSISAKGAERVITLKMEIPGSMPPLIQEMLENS
Method: as §1, §2, §3, §4, §5, §6, §7, §8, §9

[3] = target: T3, RAR gamma (Homo sapiens, UniProt P13631); assay: Transactivation test, HeLa reporter cells (luciferase), RAR gamma
T3 sequence (P13631 185-419 limits assumed): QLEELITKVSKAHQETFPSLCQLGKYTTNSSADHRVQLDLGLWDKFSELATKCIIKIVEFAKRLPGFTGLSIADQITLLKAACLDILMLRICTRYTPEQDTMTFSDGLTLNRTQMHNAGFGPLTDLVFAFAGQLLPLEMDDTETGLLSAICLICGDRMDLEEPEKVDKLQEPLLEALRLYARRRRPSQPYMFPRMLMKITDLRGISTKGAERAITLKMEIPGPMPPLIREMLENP
Method: as §1, §2, §3, §4, §5, §6, §7, §8, §9

Row | SMILES | pKd [1] | AC50 [1] | pKd [2] | AC50 [2] | pKd [3] | AC50 [3]
1 | CCOCCOc1cc(C(O)C#Cc2ccc(C(=O)O)cc2)cc2c1C(C)(C)CCC2(C)C (stereo not drawn) [Ex 2, 4-{3-Hydroxy-3-[4-(2-ethoxyethoxy)-5,5,8,8-tetramethyl-5,6,7,8-tetrahydronaphth-2-yl]-prop-1-ynyl}benzoic acid] | 6.00 | 900 nM |  | 500 nM | 7.52 | 50 nM
2 | CCOCCOc1cc([C@@H](O)C#Cc2ccc(C(=O)O)cc2)cc2c1C(C)(C)CCC2(C)C [Ex 5, 4-{3-Hydroxy-3-[4-(2-ethoxyethoxy)-5,5,8,8-tetramethyl-5,6,7,8-tetrahydronaphth-2-yl]prop-1-ynyl}benzoic (R)-acid] | 6.92 | 800 nM |  | 200 nM | 9.00 | 1.8 nM

Continued by rising pKd [1], values first:

Row | pKd [1] | AC50 [1] | pKd [2] | AC50 [2] | pKd [3] | AC50 [3] | SMILES
3 | 6.92 | 800 nM |  | 200 nM | 9.00 | 1.2 nM | CCOCCOc1cc([C@H](O)C#Cc2ccc(C(=O)O)cc2)cc2c1C(C)(C)CCC2(C)C [Ex 4, 4-{3-Hydroxy-3-[4-(2-ethoxyethoxy)-5,5,8,8-tetramethyl-5,6,7,8-tetrahydronaphth-2-yl]-prop-1-ynyl}benzoic (S)-acid]
4 | 7.22 | 400 nM | 7.22 | 45 nM | 8.70 | 2 nM | COCCOc1cc(C(O)C#Cc2ccc(C(=O)O)cc2)cc2c1C(C)(C)CCC2(C)C (stereo not drawn) [Ex 1, 4-{3-Hydroxy-3-[4-(2-methoxyethoxy)-5,5,8,8-tetramethyl-5,6,7,8-tetrahydronaphth-2-yl]prop-1-ynyl}benzoic acid]
5 | 7.52 | 150 nM | 6.92 | 100 nM | 9.00 | 1 nM | CCOCCOc1cc(C(O)C#Cc2ccc(C(=O)O)c(O)c2)cc2c1C(C)(C)CCC2(C)C (stereo not drawn) [Ex 3, 4-{3-Hydroxy-3-[4-(2-ethoxyethoxy)-5,5,8,8-tetramethyl-5,6,7,8-tetrahydronaphth-2-yl]prop-1-ynyl}-2-hydroxybenzoic acid]
